Measurements from PubChem BioAssay (NCI).
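Dose response: 5 concentrations. Exposure: 48 h. Format: 96-well plates. Endpoint: linear interpolation; highest concentration if not reached. Abbreviation: GI50, concentration required for 50% inhibition of growth. TGI denotes the concentration required for complete inhibition of growth.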

Tests used:
Assay in all cases: NCI anticancer screen, dose series, 48 h
[1] = tested on: SK-OV-3 ovarian
[2] = tested on: NCI-H460 lung
[3] = tested on: COLO 205 colon
[4] = tested on: UACC-62 melanoma
[5] = tested on: OVCAR-8 ovarian
[6] = tested on: PC-3 prostate
[7] = tested on: OVCAR-5 ovarian
[8] = tested on: IGROV1 ovarian
[9] = tested on: ACHN renal
[10] = tested on: DU-145 prostate
[11] = tested on: NCI-H226 lung
[12] = tested on: SF-268 CNS
[13] = tested on: M14 melanoma
[14] = tested on: A549 NSCLC
[15] = tested on: SNB-75 CNS
[16] = tested on: A498 renal
[17] = tested on: SR leukemia
[18] = tested on: HCT-116 colon
[19] = tested on: CAKI-1 renal
[20] = tested on: T-47D breast
[21] = tested on: MDA-MB-231 breast
[22] = tested on: CCRF-CEM leukemia
[23] = tested on: HCT-15 colon
[24] = tested on: TK-10 renal
[25] = tested on: RXF 393 renal
[26] = tested on: K-562 leukemia
[27] = tested on: RPMI-8226 leukemia
[28] = tested on: OVCAR-4 ovarian
[29] = tested on: NCI-H522 lung
[30] = tested on: KM12 colon
[31] = tested on: HCC-2998 colon
[32] = tested on: HOP-62 NSCLC
[33] = tested on: SF-295 CNS
[34] = tested on: SF-539 CNS
[35] = tested on: SN12C renal
[36] = tested on: MOLT-4 leukemia
[37] = tested on: LOX IMVI melanoma
[38] = tested on: SNB-19 CNS
[39] = tested on: MCF7 breast
[40] = tested on: BT-549 breast
[41] = tested on: HT29 colon
[42] = tested on: HL-60(TB) leukemia
[43] = tested on: MALME-3M melanoma
[44] = tested on: 786-0 renal
[45] = tested on: UACC-257 melanoma
[46] = tested on: SK-MEL-5 melanoma
[47] = tested on: HS 578T breast
[48] = tested on: HOP-92 NSCLC
[49] = tested on: UO-31 renal
[50] = tested on: NCI/ADR-RES ovarian
[51] = tested on: U251 CNS
[52] = tested on: SW-620 colon
[53] = tested on: SK-MEL-28 melanoma
[54] = tested on: MDA-MB-435
[55] = tested on: NCI-H23 lung
[56] = tested on: EKVX NSCLC

CC(=O)Nc1cccc(-n2cnc3cc(-c4ccc(O)cc4)ccc32)c1
GI50 [1]: 1160 nM
TGI [1]: 22.1 µM
GI50 [2]: 386 nM
TGI [2]: 14.6 µM
GI50 [3]: 3860 nM
TGI [3]: 40.1 µM
GI50 [4]: 350 nM
TGI [4]: 17.6 µM
GI50 [5]: 618 nM
TGI [5]: 17 µM
GI50 [6]: 1430 nM
TGI [6]: 42.1 µM
GI50 [7]: 10.6 µM
TGI [7]: > 100 µM
GI50 [8]: 696 nM
TGI [8]: 29.1 µM
GI50 [9]: 894 nM
TGI [9]: 16.8 µM
GI50 [10]: 1760 nM
TGI [10]: 23.6 µM
GI50 [11]: 779 nM
TGI [11]: 4.26 µM
GI50 [12]: 982 nM
TGI [12]: 57.8 µM
GI50 [13]: 289 nM
TGI [13]: 77 µM
GI50 [14]: 730 nM
TGI [14]: 80.9 µM
GI50 [15]: 232 nM
TGI [15]: 929 nM
GI50 [16]: 249 nM
TGI [16]: 0.982 µM
GI50 [17]: 182 nM
TGI [17]: > 100 µM
GI50 [18]: 413 nM
TGI [18]: 27.2 µM
GI50 [19]: 668 nM
TGI [19]: 14 µM
GI50 [20]: 534 nM
TGI [20]: 19.6 µM
GI50 [21]: 460 nM
TGI [21]: > 100 µM
GI50 [22]: 515 nM
TGI [22]: 68.2 µM
GI50 [23]: 333 nM
TGI [23]: 18.9 µM
GI50 [24]: 5.95 µM
TGI [24]: 47.4 µM
GI50 [25]: 834 nM
TGI [25]: 8.27 µM
GI50 [26]: 169 nM
TGI [26]: > 100 µM
GI50 [27]: 494 nM
TGI [27]: 9.23 µM
GI50 [28]: 2420 nM
TGI [28]: 43.1 µM
GI50 [29]: 176 nM
TGI [29]: 503 nM
GI50 [30]: 5.42 µM
TGI [30]: 68.2 µM
GI50 [31]: 3460 nM
TGI [31]: 49 µM
GI50 [32]: 820 nM
TGI [32]: 22.5 µM
GI50 [33]: 601 nM
TGI [33]: 11 µM
GI50 [34]: 371 nM
TGI [34]: 5.95 µM
GI50 [35]: 546 nM
TGI [35]: 41.4 µM
GI50 [36]: 428 nM
TGI [36]: 16.2 µM
GI50 [37]: 523 nM
TGI [37]: 16.3 µM
GI50 [38]: 872 nM
TGI [38]: > 100 µM
GI50 [39]: 377 nM
TGI [39]: 22.6 µM
GI50 [40]: 342 nM
TGI [40]: 11.2 µM
GI50 [41]: 3240 nM
TGI [41]: 19 µM
GI50 [42]: 0.313 µM
TGI [42]: 10.6 µM
GI50 [43]: 583 nM
TGI [43]: 49.8 µM
GI50 [44]: 780 nM
TGI [44]: 23.2 µM
GI50 [45]: 716 nM
TGI [45]: 45.5 µM
GI50 [46]: 316 nM
TGI [46]: 15.8 µM
GI50 [47]: 254 nM
TGI [47]: 2.46 µM
GI50 [48]: 940 nM
TGI [48]: 28.8 µM
GI50 [49]: 716 nM
TGI [49]: 15 µM
GI50 [50]: 0.428 µM
TGI [50]: 11.5 µM
GI50 [51]: 365 nM
TGI [51]: 30.2 µM
GI50 [52]: 368 nM
TGI [52]: 36.5 µM

O=C(N/N=C\c1ccc(F)cc1)c1ccc2nc(-c3ccc(Br)cc3)[nH]c2c1
GI50 [1]: 2090 nM
TGI [1]: 5.17 µM
GI50 [2]: 1720 nM
TGI [2]: 3.27 µM
GI50 [3]: 1910 nM
TGI [3]: 4.43 µM
GI50 [4]: 2690 nM
TGI [4]: 8.76 µM
GI50 [5]: 1980 nM
TGI [5]: 4.14 µM
GI50 [6]: 1790 nM
TGI [6]: 3.4 µM
GI50 [7]: 2.28 µM
TGI [7]: 5.73 µM
GI50 [8]: 1880 nM
TGI [8]: 3.89 µM
GI50 [9]: 1810 nM
TGI [9]: 3.69 µM
GI50 [10]: 2070 nM
TGI [10]: 4.97 µM
GI50 [11]: 2620 nM
TGI [11]: 16.6 µM
GI50 [12]: 3260 nM
TGI [12]: 13 µM
GI50 [13]: 2080 nM
TGI [13]: 4.52 µM
GI50 [14]: 1900 nM
TGI [14]: 3.7 µM
GI50 [15]: 1870 nM
TGI [15]: 4410 nM
GI50 [16]: 1940 nM
TGI [16]: 5.31 µM
GI50 [53]: 1860 nM
TGI [53]: 3.8 µM
GI50 [17]: 2750 nM
TGI [17]: 8.79 µM
GI50 [18]: 1870 nM
TGI [18]: 3.95 µM
GI50 [19]: 2200 nM
TGI [19]: 5.41 µM
GI50 [20]: 1780 nM
TGI [20]: 3.92 µM
GI50 [21]: 1930 nM
TGI [21]: 4.49 µM
GI50 [22]: 3500 nM
TGI [22]: 32.1 µM
GI50 [23]: 2190 nM
TGI [23]: 5.08 µM
GI50 [24]: 2.59 µM
TGI [24]: 5.48 µM
GI50 [25]: 1740 nM
TGI [25]: 3.53 µM
GI50 [54]: 1960 nM
TGI [54]: 4.12 µM
GI50 [26]: 2730 nM
TGI [26]: 8.09 µM
GI50 [27]: 2970 nM
TGI [27]: 9.39 µM
GI50 [28]: 2510 nM
TGI [28]: 7.13 µM
GI50 [29]: 1780 nM
TGI [29]: 3960 nM
GI50 [30]: 3.2 µM
TGI [30]: 15.1 µM
GI50 [31]: 2280 nM
TGI [31]: 5.48 µM
GI50 [32]: 1860 nM
TGI [32]: 3.72 µM
GI50 [33]: 2180 nM
TGI [33]: 5.24 µM
GI50 [34]: 1740 nM
TGI [34]: 3.42 µM
GI50 [35]: 1780 nM
TGI [35]: 3.63 µM
GI50 [36]: 2170 nM
TGI [36]: 5.62 µM
GI50 [37]: 1740 nM
TGI [37]: 3.54 µM
GI50 [38]: 2270 nM
TGI [38]: 4.96 µM
GI50 [39]: 1700 nM
TGI [39]: 3.88 µM
GI50 [40]: 2340 nM
TGI [40]: 6.08 µM
GI50 [41]: 1850 nM
TGI [41]: 3.47 µM
GI50 [42]: 14.6 µM
TGI [42]: > 100 µM
GI50 [43]: 1650 nM
TGI [43]: 3.43 µM
GI50 [55]: 1880 nM
TGI [55]: 3.67 µM
GI50 [44]: 2030 nM
TGI [44]: 3.88 µM
GI50 [45]: 2030 nM
TGI [45]: 4.48 µM
GI50 [56]: 2090 nM
TGI [56]: 4.8 µM
GI50 [46]: 3250 nM
TGI [46]: 13.4 µM
GI50 [47]: 2040 nM
TGI [47]: 5.39 µM
GI50 [48]: 2130 nM
TGI [48]: 4.54 µM
GI50 [49]: 1600 nM
TGI [49]: 3.31 µM
GI50 [50]: 7.97 µM
TGI [50]: > 100 µM
GI50 [51]: 1910 nM
TGI [51]: 3.38 µM
GI50 [52]: 1900 nM
TGI [52]: 3.76 µM
